Results on 42 molecules are retold here after patent US11136337B2, “Pyrazole- and indazole-substituted oxadiazolopyridine derivatives for use as ghrelin O-acyl transferase (GOAT) inhibitors” (Boehringer Ingelheim International GmbH, priority 2018, dated 2021).

pIC50: −log10 of the molar value.

As a reminder, the pIC50 is the negative decadic logarithm of the IC50, by convention in mol/L. Read a high pIC50 as a small IC50.

Chain of human GOAT (Q96T53 whole entry): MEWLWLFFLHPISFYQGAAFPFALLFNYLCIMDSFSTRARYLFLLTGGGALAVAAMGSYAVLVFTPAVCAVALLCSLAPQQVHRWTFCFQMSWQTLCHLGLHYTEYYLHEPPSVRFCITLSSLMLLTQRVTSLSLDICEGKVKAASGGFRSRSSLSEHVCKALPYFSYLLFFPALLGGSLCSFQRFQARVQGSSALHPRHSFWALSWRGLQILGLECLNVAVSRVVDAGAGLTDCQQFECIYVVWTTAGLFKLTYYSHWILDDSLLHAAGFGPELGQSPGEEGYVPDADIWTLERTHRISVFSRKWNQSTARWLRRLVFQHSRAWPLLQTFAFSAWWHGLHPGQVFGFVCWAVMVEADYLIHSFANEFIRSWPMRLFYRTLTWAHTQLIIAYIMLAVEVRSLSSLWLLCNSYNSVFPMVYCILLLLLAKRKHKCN

In the test the target is human GOAT (Homo sapiens (Human), UniProt Q96T53). Briefly: Determination of hGOAT activity in HEK293 cells after incubation with test compound (acyl-ghrelin ELISA). The format is cell-based. The conditions noted are these: HEK293 cells stably expressing human GOAT and preproghrelin; 5 h incubation with octanoate-BSA; acyl-ghrelin in medium by ELISA. As to the method:
Determination of hGOAT Activity in HEK293 Cells after Incubation with Test Compound
HEK293 cells stably transfected with two expression vectors, one coding for preproghrelin cDNA and a second for the expression of human GOAT cDNA are used as a cellular model. After feeding the cells with octanoic acid for 5 hours, acyl-ghrelin is measured in cell culture medium by an ELISA procedure.
Cellline: Hek293 hGOAT/PPGhrl Clone #1B8Sodium octanoate, Sigma, Cat.-No. C5038
BD Poly-D-Lysin 384-well Plates, black-clear polystyrene BD Bioscience Cat.-No. […] ELISA human acylated Ghrelin Kit purchased from Bertin Pharman (detailed composition of buffers e.g. wash-puffer, ELISA buffer not known)
Cells are plated with a density of 5000 cells/well in 384-well poly-D-lysin plates and incubated for 1 day at 37° C., 5% CO2 in DMEM medium, 10% FCS, 1×NEAA, Puromycin (0.5 μg/ml) and G418 (1 mg/ml). Then the medium is changed to a identical medium without FCS and containing Octanoate-BSA (final concentration 100 μM each) and compound in DMSO (final DMSO concentration 0.3%). After incubation for 5 hours acylghrelin in the medium is measured by ELISA.
The medium sample is diluted 1:25 in Elisa buffer, a 25 μl aliquot is transferred to a 384-well ELISA plate previously washed 4 times with 100 μL wash buffer, and 25 μl tracer-solution is added. After incubation overnight (˜20 h) at 4° C. temperature the plate is washed 4 times with 100 μl wash-buffer per well. Finally 50 μl Ellman's reagent is added to each well and the plate is incubated in the dark for 20 minutes. The absorbance is measured at 405 nm in an Envision multilabel reader and the amount of acylated ghrelin is calculated according to a acylated ghrelin standard curve provided in the same plate.
The analysis of the data is performed by calculation of the percentage of acyl-ghrelin produced in the presence of test compound compared to the amount of acyl-ghrelin produced in the vehicle control samples. An inhibitor of the GOAT enzyme will give values between 100% CTL (no inhibition) and 0% CTL (complete inhibition).
IC50 values are calculated with Assay Explorer or other suited software based on curve fitting of results of 8 different compound concentrations.
In general terms: ELISA stands for enzyme-linked immunosorbent assay.
With `Cc1nc2nonc2c(N)c1Cn1ccc(-c2ccnn2C)n1` [Example 4.14], the pIC50 was 9.70. In turn, `Cc1nc2nonc2c(N)c1Cn1cc(C(F)(F)F)cn1` [Example 1.8] had a pIC50 of 8.85. Molecule `Cc1nc2nonc2c(N)c1Cn1cc(-c2ccccc2F)cn1` [Example 2.2] gave a pIC50 of 9.64.

`Cc1nc2nonc2c(N)c1Cn1ccc(-c2ccco2)n1` [Example 4.6] had a pIC50 of 9.77. `Cc1nc2nonc2c(N)c1Cn1ccc(-c2cnn3cccnc23)n1` [Example 4.10]: the pIC50 was 9.82. In turn, `Cc1nc2nonc2c(N)c1Cn1cc2ccccc2n1` [Example 6.1, 6-[(2H-Indazol-2-yl)methyl]-5-methyl-[1,2,5]oxadiazolo[3,4-b]pyridin-7-amine] had a pIC50 of 9.16. In turn, `Cc1nc2nonc2c(N)c1Cn1cc(-c2ccc(F)nc2)c(C(F)(F)F)n1` [Example 3.2] showed a pIC50 of 8.92.

In turn, `Cc1nc2nonc2c(N)c1Cn1ccc(-c2c[nH]nc2C(F)(F)F)n1` [Example 4.2] had a negative-log IC50 (pIC50) of 9.96. Consider `Cc1nc2nonc2c(N)c1Cn1ccc(-c2cncs2)n1` [Example 4.3], for which the pIC50 was 9.92. The molecule `Cc1nc2nonc2c(N)c1Cn1ccc(-c2cccc(C(F)(F)F)n2)n1` [Example 5.1, 5-Methyl-6-({3-[6-(trifluoromethyl)pyridin-2-yl]-1H-pyrazol-1-yl}methyl)-[1,2,5]oxadiazolo[3,4-b]pyridin-7-amine] had a pIC50 of 10.55. The same measure for `COC(=O)c1ccn(Cc2c(C)nc3nonc3c2N)n1` [Example 1.6, Methyl 1-({7-amino-5-methyl-[1,2,5]oxadiazolo[3,4-b]pyridin-6-yl}methyl)-1H-pyrazole-3-carboxylate]: 9.02. The molecule `Cc1nc2nonc2c(N)c1Cn1ccc(-c2c(C)noc2C)n1` [Example 4.4] had a pIC50 of 9.54. In turn, `Cc1nc2nonc2c(N)c1Cn1ccc(-c2nn(C)c3ccccc23)n1` [Example 4.9] gave a pIC50 of 10.40.

For the molecule `Cc1nc2nonc2c(N)c1Cn1cc(-c2cnn(C)c2)c(C(F)(F)F)n1` [Example 3.4], the pIC50 was 8.29. As for `Cc1nc2nonc2c(N)c1Cn1cc(Br)cn1` [Example 2.6], the pIC50 is 8.36.

Molecule `Cc1nc2nonc2c(N)c1Cn1cc(-c2cnn(C)c2)cn1` [Example 4.16] showed a pIC50 of 8.44. As for `Cc1nc2nonc2c(N)c1Cn1ccc(NC(=O)C(NC(=O)OCc2ccccc2)C(C)C)n1` (stereo not drawn) [Example 8.1, Benzyl N-(1-{[1-({7-amino-5-methyl-[1,2,5]oxadiazolo[3,4-b]pyridin-6-yl}methyl)-1H-pyrazol-3-yl]carbamoyl}-2-methylpropyl)carbamate], the pIC50 is 8.49. Molecule `Cc1nc2nonc2c(N)c1Cn1ccc(C=O)n1` [Example 2.4, 1-({7-amino-5-methyl-[1,2,5]oxadiazolo[3,4-b]pyridin-6-yl}methyl)-1H-pyrazole-3-carbaldehyde] showed a pIC50 of 8.77. `Cc1nc2nonc2c(N)c1Cn1cc(-c2ccn[nH]2)cn1` [Example 4.15]: the pIC50 was 8.25. To `Cc1nc2nonc2c(N)c1Cn1ccc(C(=O)N2CCC(O)(C(F)(F)F)C2)n1` (stereo not drawn) [Example 7.3] belongs 8.29. The same measure for `Cc1nc2nonc2c(N)c1Cn1ccc(-c2cn(C)c3ncccc23)n1` [Example 4.11]: 9.72; for `CCOC(=O)c1cnn(Cc2c(C)nc3nonc3c2N)c1` [Example 1.1, Ethyl 1-({7-amino-5-methyl-[1,2,5]oxadiazolo[3,4-b]pyridin-6-yl}methyl)-1H-pyrazole-4-carboxylate]: 8.77.

Regarding `Cc1nc2nonc2c(N)c1Cn1ccc(C(=O)N2CCC(F)(F)C2)n1` [Example 7.1, 6-{[3-(3,3-Difluoropyrrolidine-1-carbonyl)-1H-pyrazol-1-yl]methyl}-5-methyl-[1,2,5]oxadiazolo[3,4-b]pyridin-7-amine], the pIC50 was 9.08.

The molecule `Cc1nc2nonc2c(N)c1Cn1ccc(-c2ccc(S(C)(=O)=O)cc2F)n1` [Example 4.12] showed a pIC50 of 10.12.

Take `Cc1nc2nonc2c(N)c1Cn1cc(-c2ccc(C#N)cc2)cn1` [Example 1.2]: the pIC50 was 8.80. Take `Cc1nc2nonc2c(N)c1Cn1cc(Br)c(C(F)(F)F)n1` [Example 1.7, 6-{[4-Bromo-3-(trifluoromethyl)-1H-pyrazol-1-yl]methyl}-5-methyl-[1,2,5]oxadiazolo[3,4-b]pyridin-7-amine]: the pIC50 was 9.22. `Cc1nc2nonc2c(N)c1Cn1nccc1-c1ccccc1F` [Example 2.3]: the negative-log IC50 (pIC50) is 9.55. Take `Cc1nc2nonc2c(N)c1Cn1cc(NC(=O)OC(C)(C)C)cn1` [Example 1.5]: the pIC50 was 8.48.

Take `Cc1nc2nonc2c(N)c1Cn1ccc(-c2ccc(C#N)c(F)c2)n1` [Example 4.13]: the pIC50 is 9.42. Turning to `Cc1nc2nonc2c(N)c1Cn1cc(-c2ccnn2C)c(C(F)(F)F)n1` [Example 3.3], the pIC50 was 8.59. Turning to `Cc1nc2nonc2c(N)c1Cn1ccc(-c2cccc(S(C)(=O)=O)c2)n1` [Example 4.8], the pIC50 is 10.02. `Cc1nc2nonc2c(N)c1Cn1cc(C(C)(C)C)cn1` [Example 1.4] gave a pIC50 of 9.29. The same measure for `Cc1nc2nonc2c(N)c1Cn1ccc(-c2ccccc2F)n1` [Example 2.1, 6-{[3-(2-Fluorophenyl)-1H-pyrazol-1-yl]methyl}-5-methyl-[1,2,5]oxadiazolo[3,4-b]pyridin-7-amine]: 10.46.

With `Cc1nc2nonc2c(N)c1Cn1ccc(-c2cnoc2)n1` [Example 4.5], the pIC50 is 8.42. The same measure for `Cc1nc2nonc2c(N)c1Cn1cc2cc(C#N)ccc2n1` [Example 1.9]: 8.36; for `Cc1nc2nonc2c(N)c1Cn1cc(-c2cccc(S(C)(=O)=O)c2)c(C(F)(F)F)n1` [Example 3.1, 6-{[4-(3-Methanesulfonylphenyl)-3-(trifluoromethyl)-1H-pyrazol-1-yl]methyl}-5-methyl-[1,2,5]oxadiazolo[3,4-b]pyridin-7-amine]: 8.48. To `Cc1nc2nonc2c(N)c1Cn1ccc(C(=O)N2CCC(F)(F)CC2)n1` [Example 7.2] belongs 8.46; to `Cc1nc2nonc2c(N)c1Cn1cc(-c2c(C)noc2C)cn1` [Example 1.3], 8.66; to `Cc1nc2nonc2c(N)c1Cn1ccc(-c2cccnc2F)n1` [Example 4.1, 6-{[3-(2-Fluoropyridin-3-yl)-1H-pyrazol-1-yl]methyl}-5-methyl-[1,2,5]oxadiazolo[3,4-b]pyridin-7-amine], 10.47. Regarding `Cc1nc2nonc2c(N)c1Cn1ccc(CN2CCC(F)(F)CC2)n1` [Example 9.1, 6-({3-[(4,4-Difluoropiperidin-1-yl)methyl]-1H-pyrazol-1-yl}methyl)-5-methyl-[1,2,5]oxadiazolo [3,4-b]pyridin-7-amine], the pIC50 is 8.13. `Cc1nc2nonc2c(N)c1Cn1ccc(N2CCCS2(=O)=O)n1` [Example 2.5] had a pIC50 of 9.74. The molecule `Cc1nc2nonc2c(N)c1Cn1ccc(-c2cncn2C)n1` [Example 4.7] showed a pIC50 of 9.43.
